Measured values: patent US9944618B2, “Inhibiting neurotransmitter reuptake” (Mayo Foundation for Medical Education and Research, priority 2013, dated 2018)
Like-named read-outs stand apart in the source and are kept apart here.

Legend:
[1] = target: human serotonin transporter (Homo sapiens (Human), UniProt P31645); assay: Human SERT (serotonin transporter) uptake assay; format: cell-based; conditions: read-out: hSERT Ki
Experimental: This protocol was designed to measure inhibition of uptake by the human serotonin transporter. […] The Assay Buffer (AB) was […] and 0.02 M HEPES.
(§1) The HEK293F cells were transfected with the human serotonin transporter and frozen in 1 mL aliquots at about 1E+07 cells/mL. On the day of the experiment, the cells were removed from −80° C. or liquid nitrogen and thawed in a room temperature water bath. The cells were dilute to about 1-2E+06 with Freestyle medium. A 1 mL sample (1:2 dilution) was prepared, and the cells were counted. The cells were spun at 1100 rpm for 5 minutes, and the medium was aspirated off. The cells were resuspend in medium at 1.5E+06 cells/mL for about 60,000 cells per well. 40 μL of cells were dispensed per well in the Biocoat plates. The plates were spun at 1100 rpm for 1 minute to improve homogeneity of the cell layer and were incubated at 37° C. for a minimum of 3 hours.
12 μL of test compound (10 mM) in DMSO was added to the wells, and nomifensine was used as a control. Fluoxetine (final assay concentration of 10 μM) was used for background signal. The neurotransmitter transporter dye was prepared in AB prior to use.
Due to the proprietary nature of the dye formulation, all dye concentrations were expressed as a percentage of the vendor-recommended dye reconstitution. Thus, the above calculations were valid when both [dye] and Km were expressed in the same units (%). Compounds were tested in triplicate (n=3).

[2] = target: human dopamine transporter (Homo sapiens (Human), UniProt Q01959); assay: Human DAT (dopamine transporter) uptake assay; format: cell-based; conditions: read-out: hDAT Ki
Experimental: This protocol was designed to measure inhibition of uptake by the human dopamine transporter. […] The Assay Buffer (AB) was 1×HBSS and 0.02 M HEPES.
as §1, with “dopamine” for “serotonin”
12 μL of test compound (10 mM) in DMSO was added to the wells, and nomifensine was used as a control. […] The neurotransmitter transporter dye was prepared in AB prior to use.
Due to the proprietary nature of the dye formulation, all dye concentrations were expressed as a percentage of the vendor-recommended dye reconstitution. Thus, the above calculations were valid when both [dye] and K1 were expressed in the same units (%). Compounds were tested in triplicate (n=3).

CYP3A4 = CYP3A4 (Homo sapiens (Human), UniProt P08684); assay: Cytochrome P450 inhibition assay, recombinant CYP3A4 (BFC substrate); format: in vitro ADME; conditions: recombinant enzyme
Experimental: (§2) Recombinant enzymes, 3A4 and 2D6, generated using the ABL yeast expression system were used. […] The assay mixture also included K2HPO4 (pH 7.4; conc. 0.1 M) and NADPH (conc. 1 mM). The incubation time was 30 minutes, and the reference inhibitor was A-naphthoflavone. For CYP2D6, the enzyme amount was 2 pmol per well, and the substrate (7-methoxy-4-(aminomethyl)-coumarin; MAMC) was used at 20 μM. The assay mixture also included K2HPO4 (pH 7.4; conc. 0.1 M) and NADPH (conc. 0.06 mM). The incubation time was 35 minutes, and the reference inhibitor was quinidine.
(§3) Briefly, 0.6 μL of serially diluted compound was added to 75 μL water. 10 μL of diluted compound in water was then added to each assay plate. 20 μL of a K2HPO4, enzyme, and substrate mixture was added. After 10 minutes of room temperature pre-incubation, 10 μL of NADPH was added, and the plates were placed at 37° C. for 30 or 35 minutes depending on the enzyme being tested. After the incubation was complete, 20 μL of 0.1% Tris/ACN was added to the plate. The plate was read on a FluorStar fluorescence plate reader.

CYP2D6 = CYP2D6 (Homo sapiens (Human), UniProt P10635); assay: Cytochrome P450 inhibition assay, recombinant CYP2D6 (MAMC substrate); format: in vitro ADME; conditions: recombinant enzyme
Experimental: as §2, §3

[3] = target: human norepinephrine transporter (Homo sapiens (Human), UniProt P23975); assay: Human NET (norepinephrine transporter) uptake assay; format: cell-based; conditions: read-out: hNET Ki
Summary of the method: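 HEK293F cells transfected with human NET were thawed, plated at about 60,000 cells/well and held at 37 °C for at least 3 h. Compounds came from 10 mM DMSO stocks, with nomifensine as control, in 1×HBSS/0.02 M HEPES. Uptake was followed with a neurotransmitter transporter dye, dosed as % of vendor reconstitution, in triplicate.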

[4] = pKa of basic centres (Table 1); format: physicochemical
[5] = first base, e.g., an aliphatic primary, secondary, or tertiary amine, read-out: pKa (Base 1)
[6] = second base in the same molecule (if present), read-out: pKa (Base 2)

human serotonin transporter, sequence (P31645 whole entry): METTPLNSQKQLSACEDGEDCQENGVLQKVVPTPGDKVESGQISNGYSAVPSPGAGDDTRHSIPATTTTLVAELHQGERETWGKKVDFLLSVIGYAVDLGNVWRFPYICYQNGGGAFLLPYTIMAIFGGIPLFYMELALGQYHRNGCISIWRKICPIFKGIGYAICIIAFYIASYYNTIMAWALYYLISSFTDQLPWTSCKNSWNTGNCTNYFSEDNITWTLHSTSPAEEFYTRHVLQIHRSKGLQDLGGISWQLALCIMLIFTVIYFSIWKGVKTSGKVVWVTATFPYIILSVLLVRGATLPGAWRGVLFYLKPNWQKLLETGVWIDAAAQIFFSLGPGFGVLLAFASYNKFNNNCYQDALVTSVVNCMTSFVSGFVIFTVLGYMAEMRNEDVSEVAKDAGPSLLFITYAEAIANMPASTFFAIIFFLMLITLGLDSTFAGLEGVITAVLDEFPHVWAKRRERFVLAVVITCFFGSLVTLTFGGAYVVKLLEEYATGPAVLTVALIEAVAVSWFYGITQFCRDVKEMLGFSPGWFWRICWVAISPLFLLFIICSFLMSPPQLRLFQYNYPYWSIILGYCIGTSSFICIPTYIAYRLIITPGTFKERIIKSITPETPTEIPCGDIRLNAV
human norepinephrine transporter, sequence (P23975 whole entry): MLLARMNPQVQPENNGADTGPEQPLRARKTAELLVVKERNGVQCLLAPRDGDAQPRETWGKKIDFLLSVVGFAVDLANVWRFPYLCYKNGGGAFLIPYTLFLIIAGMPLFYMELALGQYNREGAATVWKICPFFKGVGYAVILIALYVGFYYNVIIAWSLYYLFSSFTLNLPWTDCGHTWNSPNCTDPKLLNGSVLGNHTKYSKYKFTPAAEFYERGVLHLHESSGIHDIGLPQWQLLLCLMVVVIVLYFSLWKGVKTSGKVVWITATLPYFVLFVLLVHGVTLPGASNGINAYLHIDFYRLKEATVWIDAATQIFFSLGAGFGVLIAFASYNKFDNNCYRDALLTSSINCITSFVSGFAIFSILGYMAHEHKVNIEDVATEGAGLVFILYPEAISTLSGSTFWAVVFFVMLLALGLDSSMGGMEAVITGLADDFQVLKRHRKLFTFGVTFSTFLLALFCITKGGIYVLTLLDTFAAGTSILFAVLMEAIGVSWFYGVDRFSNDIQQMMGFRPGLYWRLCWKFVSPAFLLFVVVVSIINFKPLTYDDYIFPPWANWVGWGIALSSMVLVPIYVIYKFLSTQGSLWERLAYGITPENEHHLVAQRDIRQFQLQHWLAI
CYP2D6, sequence (P10635 whole entry): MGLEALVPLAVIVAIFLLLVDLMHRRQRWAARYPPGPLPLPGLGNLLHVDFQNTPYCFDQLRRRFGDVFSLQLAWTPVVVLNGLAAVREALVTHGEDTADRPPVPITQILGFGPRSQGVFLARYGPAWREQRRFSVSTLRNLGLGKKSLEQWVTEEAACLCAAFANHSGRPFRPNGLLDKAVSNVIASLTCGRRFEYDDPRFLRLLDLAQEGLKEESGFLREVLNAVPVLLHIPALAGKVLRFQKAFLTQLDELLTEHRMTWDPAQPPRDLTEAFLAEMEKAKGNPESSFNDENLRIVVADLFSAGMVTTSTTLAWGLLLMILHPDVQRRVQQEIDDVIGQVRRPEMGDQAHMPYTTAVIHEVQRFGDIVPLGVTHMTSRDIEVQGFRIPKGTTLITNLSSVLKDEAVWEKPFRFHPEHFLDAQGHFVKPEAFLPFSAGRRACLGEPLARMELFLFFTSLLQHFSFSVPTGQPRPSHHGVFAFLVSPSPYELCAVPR
CYP3A4, sequence (P08684 whole entry): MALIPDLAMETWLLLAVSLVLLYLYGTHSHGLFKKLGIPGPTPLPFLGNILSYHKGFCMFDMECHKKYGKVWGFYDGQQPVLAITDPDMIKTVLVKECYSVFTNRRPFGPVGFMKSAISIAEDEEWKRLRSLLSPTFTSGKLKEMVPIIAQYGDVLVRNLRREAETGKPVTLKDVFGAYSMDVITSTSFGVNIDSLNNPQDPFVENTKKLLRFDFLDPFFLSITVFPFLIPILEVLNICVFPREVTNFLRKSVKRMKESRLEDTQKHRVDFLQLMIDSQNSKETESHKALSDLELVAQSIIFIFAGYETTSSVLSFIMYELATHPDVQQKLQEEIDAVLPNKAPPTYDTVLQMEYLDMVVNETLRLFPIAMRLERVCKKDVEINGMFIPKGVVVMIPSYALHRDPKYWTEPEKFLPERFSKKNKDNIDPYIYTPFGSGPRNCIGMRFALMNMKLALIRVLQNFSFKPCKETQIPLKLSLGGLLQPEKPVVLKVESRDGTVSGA
human dopamine transporter, sequence (Q01959 whole entry): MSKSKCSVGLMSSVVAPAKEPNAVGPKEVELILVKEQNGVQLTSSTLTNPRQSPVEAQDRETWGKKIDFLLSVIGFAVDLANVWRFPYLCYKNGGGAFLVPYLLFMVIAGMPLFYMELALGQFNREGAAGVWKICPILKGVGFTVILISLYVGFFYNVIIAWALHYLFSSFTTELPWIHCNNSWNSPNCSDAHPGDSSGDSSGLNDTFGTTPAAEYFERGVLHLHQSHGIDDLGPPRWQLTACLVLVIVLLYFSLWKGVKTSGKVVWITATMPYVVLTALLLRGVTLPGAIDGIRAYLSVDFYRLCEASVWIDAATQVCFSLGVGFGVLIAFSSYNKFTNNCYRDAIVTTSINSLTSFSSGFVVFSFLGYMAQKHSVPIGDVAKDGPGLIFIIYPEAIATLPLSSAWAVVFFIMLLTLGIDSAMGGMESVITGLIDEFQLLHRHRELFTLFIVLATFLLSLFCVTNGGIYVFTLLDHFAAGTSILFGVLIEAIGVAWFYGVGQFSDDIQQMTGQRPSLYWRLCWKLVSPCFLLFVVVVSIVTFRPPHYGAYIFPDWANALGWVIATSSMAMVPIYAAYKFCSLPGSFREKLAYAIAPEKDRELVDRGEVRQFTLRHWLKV

Row | SMILES | Ki [1] | Ki [2] | IC50 (CYP3A4) | IC50 (CYP2D6) | Ki [3] | pKa [4, 5] | pKa [4, 6]
1 | CNC[C@@H](c1ccc(Cl)c(Cl)c1)[C@@H](O)c1cncc(OC)c1 [Compound 109] | 646 nM | 66.7 nM | 20000 nM | 1100 nM | 120 nM | 9.3 | 4.5
2 | NCC[C@@H](Cc1cccnc1)c1ccc(Cl)c(Cl)c1 [Compound 112] | 154 nM | 273 nM | 18000 nM | 2900 nM | 148 nM | 8.6 | 5.1
3 | CNC[C@@H](c1ccc2ccccc2c1)[C@@H](OCC(N)=O)c1ccccc1 [Compound 117] | 796 nM | 12.9 nM | 20000 nM | 5500 nM | 236 nM | 9.6 | 
4 | CNC[C@@H](c1ccc(Cl)c(Cl)c1)[C@@H](O)c1cccc(N)c1 [Compound 119] | 1780 nM | 75.5 nM | 7900 nM | 4100 nM | 257 nM | 9.4 | 4.3
5 | CNC[C@@H](c1ccc(Cl)c(Cl)c1)[C@@H](O)c1cccc(SC)c1 [Compound 120] | 662 nM | 88.5 nM | 9000 nM | 2400 nM | 262 nM | 9.4 | 
6 | CNC[C@@H](c1ccc(Cl)c(Cl)c1)[C@@H](O)c1cccc(NS(=O)(=O)C(F)(F)F)c1 [Compound 121] | 2850 nM | 5 nM | 20000 nM | 20000 nM | 270 nM | 9.4 | 
7 | CNC[C@@H](c1ccc2ccccc2c1)[C@@H](O)c1cncc(OC)c1 [Compound 122] | 124 nM | 49.6 nM | 20000 nM | 3400 nM | 273 nM | 9.6 | 4.5
8 | CNC[C@@H](c1ccc(Cl)c(Cl)c1)[C@@H](O)c1cccc(N2CCOCC2)c1 [Compound 125] | 725 nM | 65.3 nM | 4800 nM | 2400 nM | 371 nM | 9.4 | 5.1
9 | NC[C@@H](c1ccc2ccccc2c1)[C@@H](O)c1ccc(Cl)nc1 [Compound 126] | 107 nM | 125 nM | 20000 nM | 3900 nM | 500 nM | 8.3 | 
10 | CNC[C@H](c1ccc(Cl)c(Cl)c1)[C@@H](O)c1cccc(NS(=O)(=O)C(F)(F)F)c1 [Compound 127] | 3280 nM | 80.5 nM | 20000 nM | 15000 nM | 649 nM | 9.4 | 
11 | CNC[C@@H](c1ccc(Cl)c(Cl)c1)[C@@H](O)c1ccccc1[S+](C)[O-] (stereo partly drawn) [Compound 128] | 3040 nM | 193 nM | 20000 nM | 19000 nM | 2630 nM | 9.4 | 
12 | NC[C@@H](Cc1ccccc1O)c1ccc2ccccc2c1 [Compound 133] | 116 nM | 52.7 nM | 10000 nM | 580 nM | 34.6 nM | 9.4 | 
13 | CNC[C@H](c1ccc2ccccc2c1)[C@@H](O)c1cc(F)cc(F)c1 [Compound 141] | 296 nM | 91.9 nM | 20000 nM | 370 nM | 32.6 nM | 9.6 | 
14 | CNC[C@@H](c1ccc2ccccc2c1)[C@H](O)c1cc(F)cc(F)c1 [Compound 142] | 208 nM | 95.3 nM | 20000 nM | 660 nM | 13.8 nM | 9.6 | 
15 | CNC[C@H](c1ccc(Cl)c(Cl)c1)[C@@H](O)c1ccccc1I [Compound 152] | 935 nM | 31.8 nM | 2000 nM | 44 nM | 126 nM | 9.4 | 
16 | CNC[C@@H](c1ccc(Cl)c(Cl)c1)[C@@H](O)c1cccc(OC)n1 [Compound 157] | 140 nM | 53.4 nM | 20000 nM | 580 nM | 88.4 nM | 9.2 | 
17 | CCc1cccc([C@@H](O)[C@H](CNC)c2ccc(Cl)c(Cl)c2)c1 [Compound 159] | 69.5 nM | 55.8 nM | 2500 nM | 170 nM | 55.4 nM | 9.4 | 
18 | CNC[C@H](c1ccc(Cl)c(Cl)c1)[C@@H](O)c1cccc(Br)c1 [Compound 161] | 616 nM | 103 nM | 9200 nM | 160 nM | 38.5 nM | 9.4 | 
19 | CNC[C@@H](c1ccc(Cl)c(Cl)c1)[C@@H](O)c1cccc(Br)c1 [Compound 162] | 806 nM | 110 nM | 4900 nM | 790 nM | 108 nM | 9.4 | 
20 | CNC[C@H](c1ccc(Cl)c(Cl)c1)[C@@H](O)c1cccc(SC)c1 [Compound 163] | 192 nM | 110 nM | 14000 nM | 730 nM | 80 nM | 9.4 | 
21 | CNC[C@H](c1ccc(Cl)c(Cl)c1)[C@H](O)c1cncc(OC)c1 [Compound 166] | 36.9 nM | 132 nM | 240 nM | 630 nM | 92.4 nM | 9.3 | 4.5
22 | CNCC(c1ccc2ccccc2c1)[C@@H](O)c1ccc(Cl)nc1 (stereo partly drawn) [Compound 169] | 268 nM | 146 nM | 20000 nM | 1300 nM | 212 nM | 9.6 | 
23 | CNC[C@H](c1ccc(Cl)c(Cl)c1)[C@@H](O)c1ccccc1S(C)(=O)=O [Compound 170] | 2010 nM | 40 nM | 4800 nM | 380 nM | 306 nM | 9.3 | 
